Test [1] deals with Tumors derived from NIH3T3 cells expressing two different splice variants of FGFR1 plus Myc. Nature of the test: Xenograft mouse model, tumor volume. It is filed as in vivo, mice. As for the experimental part: (§1) All animal procedures were approved by the local animal protection committee and the local authorities. Xenograft-experiments were performed in 10 to 15 week old male athymic NMRI-nude-mice (Janvier, Europe). Mice were hold in a 12 hour light-dark-cycle. They got water and standard food ad libitium.
(§2) NIH3T3-cells transduced with empty Vector (puro), empty Vector (puro+zeo), KRAS G12V, FGFR1-α, FGFR1-β, FGFR1-β + cMyc were cultured as described before. For implantation they were resuspended in plain RPMI in a concentration of 50*10^6 cells/ml. 5*10^6 cells were injected subcutaneously in mice, under 2.5% Isolflurane-anaesthesia. Tumorgrowth was monitored every 2nd day by calimetric measurement. Tumorvolumes were calculated by V= […].
(§3) Therapy was started when tumors reached a size of 100mm^3. They were treated daily by oral gavage either with 10mg/kg NVP-BGJ 398 (Novartis) dissolved in vehicle (PEG300, 5%Glucose; 2:1) or with the vehicle-detergent alone. After 8 (KRas), 12 (FGFR1-α and FGFR1-β + cMyc), days of therapy mice were sacrificed by intraperitoneal injection of Ketamin/Xylazine (300/60 mg/kg) and tumors were resected and fixed in 4% formaldehyde for histology.

The test system of test [2] is Tumors derived from NIH3T3 cells expressing KRas G12V. Nature of the test: Xenograft mouse model, tumor volume. The format is in vivo, mice. Conditions: Figure 3; KRas G12V (positive control); 10mg/kg daily by oral gavage. The procedure:
as §1, §2, §3

Test [3] relates to Tumors derived from NIH3T3 cells expressing only FGFR1. Nature of the test: Xenograft mouse model, tumor volume. The format is in vivo, mice. The procedure:
as §1, §2, §3

Test [4] has as its system Tumors derived from NIH3T3 cells expressing EML4-Alk. Nature of the test: Xenograft mouse model, tumor volume. The format is in vivo, mice. As to conditions: Figure 6; EML4-Alk (positive control).
The subject of test [5] is FGFR1-amplified and FGFR1 non-amplified cell lines.
Test [6] relates to H1581 cell line with Myc downregulated (shMyc). Conditions: Figure 12, different concentrations. The procedure: (§4) All compounds were purchased from commercial suppliers, dissolved in DMSO, and stored at - 20°C. Cells were plated into sterile 96-- - well microtiter plates using a multichannel pipette and cultured overnight. Compounds were then added in serial dilutions. Cellular viability was determined after 96 hours of treatment by measuring cellular ATP content using the CellTiter-- Glo Assay (Promega). Plates were measured on a Mithras LB 940 Plate Reader (Berthold Technologies). GI50 values were determined using the following R package (Frommolt P, Thomas RK, 2008, Standardized high-- - throughput evaluation of cell-- - based compound screens. BMC Bioinformatics. 9:475)

Test [7] deals with H1581 cell line. Conditions: Figure 12; different concentrations. As for the experimental part:
as §4

Setting [8] is: Figure 3, FGFR1 plus Myc, 10mg/kg daily by oral gavage.

Structures are written as SMILES. Like-named read-outs stand apart in the source and are kept apart here.

Turning to `CCN1CCN(c2ccc(Nc3cc(N(C)C(=O)Nc4c(Cl)c(OC)cc(OC)c4Cl)ncn3)cc2)CC1` [BGJ398], the tumor disappearance entry in test [1] (setting [8]) was “disappeared within ten days of treatment”. Moreover, the tumor volume entry in test [1] (setting [8]) was “strong reduction of tumor volume”; in test [1] (Figure 5, tumor with FGFR1 and c-myc expression, treated mouse), “completely disappeared after ten days of treatment”; in test [3] (Figure 5, tumor expressing only FGFR1, treated mouse), “did not shrink and even little grew”; in test [3] (Figure 6, two different splice variants of FGFR1), “stable disease under treatment”; in test [4], “increase in tumor volume”. The tumor size entry in test [2] was “strong tumor growth”; in test [3] (Figure 3, only FGFR1, 10mg/kg daily by oral gavage), “stable disease”.

Turning to `CCN(CC)CCCCNc1ncc2cc(-c3cc(OC)cc(OC)c3)c(NC(=O)NC(C)(C)C)nc2n1` [PD173074], the IC50 values result is on record as “lower IC50 values” in test [5] (Figure 8, cell lines expressing high amounts of FGFR and Myc); “lower IC50 values” in test [5] (Figure 9, cell lines H1581 and A427, high FGFR, higher FGFR1β/FGFR1α ratio, high Myc expression). Moreover, the entries for the “response to FGFR inhibition” value in test [6] and in test [7] were “less response” and “highly sensitive/responsive”, respectively.
